The results in this text go back to ChEMBL document CHEMBL4049411, “Rational Design, Synthesis, and Biological Evaluation of Heterocyclic Quinolones Targeting the Respiratory Chain of Mycobacterium tuberculosis” (J Med Chem, 2017).

The IC50 is the concentration that inhibits the measured activity by half. Usually IC90 stands for the concentration at which the effect reaches the 90% level. For orientation: half-life means the time needed for the level to fall by half in the phase considered.

The structures appear in SMILES notation.

Series [1] in a line: (§1) Inhibition of replicating Mycobacterium tuberculosis H37Rv NDH assessed as cell growth inhibition after 7 days by MABA method. The note with it: 168 h.
Series [2] relates to Mycobacterium tuberculosis H37Rv. The description is as §1.
For a further series, the system named is HepG2. The series can be described thus: Cytotoxicity against human HepG2 cells after 24 hrs in presence of glucose by MTT assay. The format is cell-based. The settings on record: hepg2, 24 h.
Series [3] is described as follows: Metabolic stability in human liver microsomes assessed as half life for metabolic turnover at 0.1 to 10 uM preincubated for 60 mins in presence of NADPH measured up to 60 mins by mass spectroscopic analysis. The format is ADME, microsome. For orientation: Liver microsomes are vesicles of endoplasmic reticulum, rich in cytochrome P450 enzymes.
A short description of series [4]: Metabolic stability in mouse liver microsomes assessed as half life for metabolic turnover at 0.1 to 10 uM preincubated for 60 mins in presence of NADPH measured up to 60 mins by mass spectroscopic analysis. The format is ADME, microsome.
Series [5] is described as follows: Metabolic stability in rat liver microsomes assessed as half life for metabolic turnover at 0.1 to 10 uM preincubated for 60 mins in presence of NADPH measured up to 60 mins by mass spectroscopic analysis. The format is ADME, microsome.

With `Cc1c(-c2ccc(N3CCC(C)CC3)cc2)[nH]c2cc(F)cc(F)c2c1=O`, the IC50 in series [1] fell in the range of 0.61 to 0.611 µM. Moreover, in series [2], the IC90 is 1.93 µM. In addition, the Activity in the series on HepG2 was more than 100 µM. Also, the half-life at up to 10 µM in series [3], in series [4] and in series [5] was less than 10 min throughout. On to `Cc1c(-c2ccc(N3CCCC(C)(O)C3)cc2)[nH]c2cc(F)cc(F)c2c1=O` (stereo not drawn), for which the 50% inhibitory concentration (IC50) in series [1] came out at 5.01 µM. Same read-out and setting: next, `Cc1c(-c2ccc(-n3ccc4ccccc43)cc2)[nH]c2cc(F)cc(F)c2c1=O`: more than 10 µM.

For `COc1ccc2c(=O)c(C)c(-c3ccc(N4CCN(c5ccccc5)CC4)cc3)[nH]c2c1`, the IC50 in series [1] was more than 10 µM.

In the case of `Cc1c(-c2ccc(N3CC(C)(O)C3)cc2)[nH]c2cc(F)cc(F)c2c1=O`, the IC50 in series [1] was more than 10 µM.

Take `Cc1c(-c2ccc(N3CCCCC3)cc2)[nH]c2ccc(F)cc2c1=O`: the IC50 in series [1] was 1.83 µM. For the compound `COc1ccc2c(=O)c(C)c(-c3ccc(N4CCC(F)CC4)cc3)[nH]c2c1`, the IC50 in series [1] is 1.32 µM. `Cc1c(-c2ccc(N3CCC(Cc4ccccc4)CC3)cc2)[nH]c2ccc(F)cc2c1=O`: in series [1], the IC50 is more than 10 µM. For the compound `Cc1c(-c2ccc(N3CCC(C(F)(F)F)CC3)cc2)[nH]c2cc(F)cc(F)c2c1=O`, the IC50 in series [1] is more than 10 µM. Regarding `Cc1c(-c2ccc(N3CCC[C@@H]3C(=O)NC3CCOCC3)cc2)[nH]c2cc(F)cc(F)c2c1=O`, in series [1], the IC50 is more than 10 µM. For the compound `Cc1c(-c2ccc(N3CC[C@@H]3C(=O)N(C)C)cc2)[nH]c2cc(F)cc(F)c2c1=O`, the IC50 in series [1] was more than 10 µM. Regarding `Cc1c(-c2ccc(N3CCC(F)(F)CC3)cc2)[nH]c2cc(F)cc(F)c2c1=O`, the IC50 in series [1] is more than 10 µM.

On to `Cc1c(-c2ccc(N3CCCC(F)(F)C3)cc2)[nH]c2cc(F)cc(F)c2c1=O`, for which the IC50 in series [1] lay within 0.36 to 0.361 µM. The IC90 in series [2] was found to be 0.83 µM. Also, the half-life at up to 10 µM stood at 17.4 min in series [3], 16.2 min in series [4] and 13.7 min in series [5]. Turning to `Cc1c(-c2ccc(N3CCC4(CC3)CC4)cc2)[nH]c2cc(F)cc(F)c2c1=O`, in series [1], the IC50 is more than 10 µM.

Consider `Cc1c(-c2ccc(-n3cccc3)cc2F)[nH]c2cc(F)cc(F)c2c1=O`, for which, in series [1], the IC50 is more than 10 µM. Take `O=c1c(Br)c(-c2ccc(N3CCC(F)CC3)cc2)[nH]c2ccccc12`: the IC50 in series [1] is more than 10 µM.

As to `Cc1c(-c2ccc(-n3cccc3)c(Cl)c2)[nH]c2cc(F)cc(F)c2c1=O`, in series [1], the IC50 is more than 10 µM. `Cc1c(-c2ccc(N(C)C)cc2)[nH]c2cc(F)cc(F)c2c1=O`: the IC50 in series [1] turned out to be 0.41 µM. `Cc1c(-c2cccc(N3CCCCC3)c2)[nH]c2cc(F)cc(F)c2c1=O`: the IC50 in series [1] is more than 10 µM. Same read-out and setting: the figure for `O=c1c(Cl)c(-c2ccc(N3CCC(F)CC3)cc2)[nH]c2ccccc12` is more than 10 µM; for `COc1cc2[nH]c(-c3ccc(-n4cc(F)c(F)c4)cc3)c(C)c(=O)c2cc1Cl` it is more than 10 µM.

Consider `Cc1c(-c2ccc(N3CCC(Cc4ccccc4)CC3)cc2)[nH]c2ccccc2c1=O`, for which the IC50 in series [1] was more than 10 µM. Take `Cc1c(-c2ccc(-n3cccc3C#N)cc2)[nH]c2cc(F)cc(F)c2c1=O`: in series [1], the IC50 is more than 10 µM. For `Cc1c(-c2ccc(N3CC[C@@H]3C(=O)NC(C)(C)C)cc2)[nH]c2cc(F)cc(F)c2c1=O`, the half-inhibitory concentration (IC50) in series [1] is more than 10 µM. Consider `Cc1c(-c2ccc(NCc3ccccc3)cc2)[nH]c2cc(F)cc(F)c2c1=O`, for which the IC50 in series [1] was more than 10 µM. `Cc1c(-c2ccc(N3CCN(Cc4ccccc4)CC3)cc2)[nH]c2ccc(F)cc2c1=O`: the IC50 in series [1] was more than 10 µM.

Regarding `O=c1c(Br)c(-c2ccc(N3CCCCC3)cc2)[nH]c2ccccc12`, in series [1], the IC50 is 0.6 µM.

As for `Cc1c(-c2ccc(N3CCC[C@@H]3C(=O)N3CCOCC3)cc2)[nH]c2cc(F)cc(F)c2c1=O`, the IC50 in series [1] was more than 10 µM.

Turning to `Cc1c(-c2ccc(N3CCC[C@H]3COCc3ccccc3)cc2)[nH]c2cc(F)cc(F)c2c1=O`, the IC50 in series [1] came to 0.96 µM. For `Cc1c(-c2ccc(N3CCCCC3)cc2)[nH]c2cc(Cl)ccc2c1=O`, the IC50 in series [1] was more than 10 µM. On to `Cc1c(-c2ccc(N3CCCCC3)cc2)[nH]c2cc(F)ccc2c1=O`, for which the IC50 in series [1] is more than 10 µM. In the case of `Cc1c(-c2ccc(N3CCCCC3)cc2)[nH]c2cc(F)cc(F)c2c1=O`, in series [1], the IC50 is 0.27 µM. Moreover, in series [2], the IC90 is 0.78 µM. The Activity in the series on HepG2 was more than 100 µM. Moreover, the half-life at up to 10 µM in series [3] turned out to be 7.31 min; in series [4] it was 8.27 min; in series [5] it was 8.3 min. Turning to `Cc1c(-c2ccc(N3CCC(F)CC3)cc2)[nH]c2cc(F)cc(F)c2c1=O`, in series [1], the IC50 fell in the range of 0.94 to 0.95 µM. Besides, in series [2], the IC90 came out at 1.83 µM. Further, the Activity with HepG2 was 102.2 µM. The results for the half-life at up to 10 µM in series [3], in series [4] and in series [5] were 5.7 min, 4.4 min and 8.4 min, respectively. `Cc1c(-c2ccc(N3CCN(C)CC3)cc2)[nH]c2cc(F)cc(F)c2c1=O`: in series [1], the IC50 is more than 10 µM. Take `COc1cc(OC)c2c(=O)c(C)c(-c3ccc(N4CCCCC4)cc3)[nH]c2c1`: in series [1], the IC50 is more than 10 µM.

`Cc1c(-c2ccc(N3CC(F)(F)C3)cc2)[nH]c2cc(F)cc(F)c2c1=O`: the IC50 in series [1] is 1.53 µM.

Consider `Cc1c(-c2ccc(-n3cc(F)c(F)c3)cc2)[nH]c2cc(F)cc(F)c2c1=O`, for which, in series [1], the half-maximal inhibitory concentration (IC50) was more than 10 µM. For the same compound, the IC90 in series [2] was more than 10 µM. The half-life at up to 10 µM in series [3], in series [4] and in series [5] was not below 60 min in each case.

As to `COc1cc2[nH]c(-c3ccc(N4CCCCC4)cc3)c(C)c(=O)c2cc1OC`, the IC50 in series [1] is more than 10 µM. For `Cc1c(-c2ccc(N3CCC[C@@H]3C(=O)NC(C)(C)C)cc2)[nH]c2cc(F)cc(F)c2c1=O`, the IC50 in series [1] was 0.96 µM. Still for that read-out and setting: next, `Cc1c(-c2ccc(-n3cccc3)cc2)[nH]c2cccc(F)c2c1=O`: 0.71 µM. Consider `Cc1c(-c2ccc(N3CCN(Cc4ccccc4)CC3)cc2)[nH]c2ccccc2c1=O`, for which the IC50 in series [1] was 5.74 µM.

As to `COc1cc2[nH]c(-c3ccc(N4CCCCC4)cc3)c(C)c(=O)c2cc1Cl`, the IC50 in series [1] was more than 10 µM. As for `COc1ccc2c(=O)cc(-c3ccc(N4CCCCC4)cc3)[nH]c2c1`, the IC50 in series [1] is more than 10 µM. `COc1ccc2c(=O)c(Cl)c(-c3ccc(N4CCC(F)CC4)cc3)[nH]c2c1`: in series [1], the IC50 was more than 10 µM. For `O=c1cc(-c2ccc(N3CCCCC3)cc2)[nH]c2ccccc12`, the IC50 in series [1] was more than 10 µM. `Cc1c(-c2ccc(N3CCC[C@@H]3C(=O)N3CCC(F)CC3)cc2)[nH]c2cc(F)cc(F)c2c1=O`: in series [1], the IC50 is more than 10 µM. Turning to `Cc1c(-c2ccc(N3CCC(C)(O)C3)cc2)[nH]c2cc(F)cc(F)c2c1=O` (stereo not drawn), the IC50 in series [1] was more than 10 µM. Still for that read-out and setting: the figure for `Cc1c(-c2ccc(-n3cccn3)cc2)[nH]c2cc(F)cc(F)c2c1=O` is more than 10 µM; for `COc1ccc2c(=O)c(C)c(-c3ccc(N4CCN(Cc5ccccc5)CC4)cc3)[nH]c2c1` it is more than 10 µM.

`O=c1c(Cl)c(-c2ccc(N3CCCCC3)cc2)[nH]c2ccccc12`: the IC50 in series [1] came out at 1.56 µM.

`COc1ccc2c(=O)c(C)c(-c3ccc(-n4cc(F)c(F)c4)cc3)[nH]c2c1`: the IC50 in series [1] is more than 10 µM. In the case of `Cc1c(-c2ccc(N3CCC[C@@H]3C(=O)N(C)C)cc2)[nH]c2cc(F)cc(F)c2c1=O`, in series [1], the IC50 is more than 10 µM. In the case of `COc1ccc2c(=O)c(C)c(-c3ccc(N4CCC(Cc5ccccc5)CC4)cc3)[nH]c2c1`, the IC50 in series [1] was more than 10 µM.

Consider `Cc1c(-c2ccc(N3CCC(F)CC3)cc2)[nH]c2ccccc2c1=O`, for which, in series [1], the IC50 is more than 10 µM. The same measure, in the same setting: the figure for `COc1ccc2c(=O)cc(-c3ccc(N4CCC(F)CC4)cc3)[nH]c2c1` is more than 10 µM.
